In patent US6492416B1, “4,5-diaryl-3(2H)-furanone derivatives as cyclooxygenase-2 inhibitors” (Pacific Corporation, priority 1999, dated 2002):
Converted amounts (≈) assume the structure as drawn.

Assays:
[1] = biological target: T1, COX-2 (Mus musculus, UniProt Q05769); assay: Evaluation of COX-2 activity: PGE2 formation in aspirin-treated, LPS-stimulated mouse peritoneal macrophages; type: cell-based
T1 sequence (Q05769 18-604): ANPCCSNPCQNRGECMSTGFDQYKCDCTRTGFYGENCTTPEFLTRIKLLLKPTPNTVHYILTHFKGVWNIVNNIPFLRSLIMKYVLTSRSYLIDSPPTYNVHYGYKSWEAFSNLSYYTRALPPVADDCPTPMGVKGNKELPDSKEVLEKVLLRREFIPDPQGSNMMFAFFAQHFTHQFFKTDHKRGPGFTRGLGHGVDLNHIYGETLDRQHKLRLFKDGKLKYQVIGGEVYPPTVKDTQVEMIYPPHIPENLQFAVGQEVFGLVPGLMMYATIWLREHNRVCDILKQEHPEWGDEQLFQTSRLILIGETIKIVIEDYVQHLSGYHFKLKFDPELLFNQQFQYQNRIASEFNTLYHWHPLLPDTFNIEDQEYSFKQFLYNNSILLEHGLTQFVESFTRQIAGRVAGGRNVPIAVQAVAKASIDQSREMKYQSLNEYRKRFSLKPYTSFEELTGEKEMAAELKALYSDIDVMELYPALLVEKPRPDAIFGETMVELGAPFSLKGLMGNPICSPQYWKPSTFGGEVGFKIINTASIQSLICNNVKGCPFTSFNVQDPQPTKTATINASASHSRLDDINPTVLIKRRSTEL
In short: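 C57BL/6 peritoneal macrophages treated with 500 μM aspirin to block COX-1, adhered, then stimulated with 10 μg/ml LPS for 16 h at 37 °C to induce COX-2.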

[2] = biological target: T2, COX-1 (Mus musculus, UniProt P22437); assay: Evaluation of COX-1 activity: PGE2 formation in mouse peritoneal macrophages without aspirin and LPS treatment; type: cell-based
T2 sequence (P22437 27-602): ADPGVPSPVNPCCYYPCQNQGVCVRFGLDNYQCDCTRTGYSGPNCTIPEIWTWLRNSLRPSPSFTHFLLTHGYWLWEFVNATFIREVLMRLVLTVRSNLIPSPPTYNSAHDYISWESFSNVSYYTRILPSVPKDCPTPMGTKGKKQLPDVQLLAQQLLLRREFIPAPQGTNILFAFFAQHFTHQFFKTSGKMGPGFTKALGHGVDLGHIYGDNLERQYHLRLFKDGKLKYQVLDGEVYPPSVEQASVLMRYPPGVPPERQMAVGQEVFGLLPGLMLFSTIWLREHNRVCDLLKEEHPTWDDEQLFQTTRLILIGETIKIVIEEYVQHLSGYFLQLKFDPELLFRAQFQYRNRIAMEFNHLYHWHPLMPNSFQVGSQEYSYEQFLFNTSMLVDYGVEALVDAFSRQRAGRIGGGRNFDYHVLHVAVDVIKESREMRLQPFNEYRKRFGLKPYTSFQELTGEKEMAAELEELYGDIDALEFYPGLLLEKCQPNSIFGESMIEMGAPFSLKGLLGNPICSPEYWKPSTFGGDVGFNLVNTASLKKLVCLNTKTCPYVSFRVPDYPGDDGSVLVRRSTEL
In short: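 Peritoneal macrophages from C57BL/6 mice, without aspirin or LPS treatment, were plated at 1×10^6 cells/ml and fixed 2 h at 37 °C. Cells were preincubated 10 min, then given 10 μM arachidonic acid plus compound for 10 min; PGE2 was measured by RIA or EIA. IC50 came from 4–5 concentrations.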

[3] = system: male SD rat; assay: Gastric safety studies (Ulcer Index); type: in vivo; settings: daily dose 30 mg/kg body weight oral for 7 days, mean of animals' scores
Protocol: Gastric safety for compounds of this invention was evaluated as follows [Otterness et al., Laboratory Models for Testing Nonsteroidal Anti-inflammatory Drugs in Nonsteroidal Anti-inflammatory Drugs; ed John Wiley & Sons pp 217-227 (1985); Wiley Interscience; New York]: A designated dose of a compound of this invention suspended in 1% methylcellulose solution was administered daily once for 7 days to a male SD rat by oral gavage. The animal was sacrificed and the inner wall of the stomach was examined visually 4 hours after the last administration (the 7th day administration). The gastric safety was assessed by the “Ulcer Index” as defined as the following scores: […]
Score 1: apparently normal stomach.
Score 2: one or more than one ulcer site of pin-point size only.
Score 3: erosions of 2 or fewer than 2, which may be accompanied by ulcers of pin-point size (an erosion is defied by any ulcerative lesion of any dimension greater than 1 mm).
Score 4: erosions more than 2, which may be accompanied by ulcers of pin-point size.
Score 5: erosions accompanied by hemorrhage.
In evaluating the gastric safety of a compound of this invention, usually 8 animals were used. The ulcer index for a compound was calculated by averaging of the ulcer index of each animal. The following Table 5 illustrates gastric safety of some COX-2 selective inhibitors of this invention.

[4] = system: male Sprague-Dawley (SD) rats; assay: Carrageenan-induced foot edema in rats (CFE); type: in vivo; settings: rat, paw volume 3 hours after Carrageenan
Protocol: An appropriate amount of a compound of this invention suspended in 1% methylcellulose (MC) solution was administered to male Sprague-Dawley (SD) rats weighing 150˜200 g by oral gavage. The volume of the administered vehicle for a compound of this invention was controlled to be smaller than 10 ml/kg body weight of the animal. One hour later, 0.1 ml of 1% Carrageenan saline solution was directly injected into the right paw of the rats to induce edema in the paw. The paw volumes at 0 hour and at 3 hours after the injection of Carrageenan were measured by using a displacement plethysmometer (Ugo Basile, Italy). The paw volumes were used to calculate % inhibition of CFE by an amount of a compound of this invention according to the following equation.
% Inhibition of CFE=(1−Δtreated/Δcontrol)×100
wherein Δtreated=[paw volume at three hours after the Carrageenan injection−paw volume right after Carrageenan injection] for a drug-administered rat, and Δcontrol=[paw volume at three hours after the Carrageenan injection−paw volume right after Carrageenan injection] for a rat without drug administration.
In order to determine the inhibitory activity of a compound of this invention at a dose, usually 5 to 8 animals were used both for drug-treated group and for control group.

[5] = system: male SD rats; assay: Antiinflammatory potency by adjuvant arthritis (AA); type: in vivo; settings: daily oral dose day 14 to day 22, rat
Protocol: Arthritis was induced in male SD rats weighing 180-200 g by subcutaneous injection of Mycobacterium butyricum mixed in 0.1 ml of incomplete Freund's adjuvanat into the base of the tail. The foot volumes were measured using a displacement plethysomometer 14 days after the injection of the adjuvant. Animals with paw volumes greater than the normal paw volumes (without the adjuvant treatment) by 0.37 ml were selected, and then randomized. A designated daily dose of a compound of this invention, which was suspended in 1% aqueous methylcellulose solution, was administered to the randomized rats with arthritis by oral gavage daily once beginning on day 14 after the injection of the adjuvant. The administration of the compound continued till day 22 after the injection of the adjuvant, and the paw volumes were measured on daily basis using a displacement plethysmometer.
% Inhibition of AA=(1−Δtreated/Δcontrol)×100
wherein Δtreated=[(paw volume at day 22)/(paw volume at day 14)−1] for a drug-administered rat, and Δcontrol=[(paw volume at day 22)/(paw volume at day 14)−1] for a rat without drug administration.
ED50 value was determined b a dose-response curve for each compound.

[6] = Pharmacokinetic studies in rats; type: in vivo, rat; settings: Example 393 orally administered to a SD rat at 10 mg/kg body weight; plasma, HPLC (FIG. 1)
Protocol: An appropriate amount of a compound suspended 1% aqueous methylcellulose solution was administered to a male SD rat by oral gavage. Blood samples were collected from the retro-orbital sinus at designated times over 24˜48 hours. Plasma was separated from each blood sample by centrifugation and the plasma was stored at 4° C. until analysis. The plasma samples prepared thereby were subjected to analysis by reverse phase HPLC (high performance liquid chromatography) using an appropriate internal standard.

[7] = system: ICR mice; assay: Acetic acid-induced writhing test; type: in vivo, mouse; settings: oral gavage
Protocol: ICR mice weighing 18˜22 g were maintained in a controlled lighting environment (12 hours on/12 hours off) and fasted overnight prior analgesic testing. Mice were administered with a compound of this invention dissolved in 10:10:80 ethanol/Tween 80/saline or vehicle only by oral gavage. The administered vehicle volume was controlled to be 10 ml/kg body weight. One hour later, the animals were treated with 0.2 ml of 1.2% acetic acid by peritoneal injection. 6 minutes later, the number of abdominal constrictions was counted for a 6 minutes period. The antinociceptive activity was expressed as the reduction in the number of abdominal constrictions, compared with that of the placebo group [J. Med. Chem. 39, 4942 (1996)]. ED50 of the mouse writhing test denotes a dose level at which the number of abdominal constrictions is half that of the placebo group. Ten animals per group were used for this study.

[8] = system: male SD rats; assay: Carrageenan-induced thermal hyperalgesia assay; type: in vivo, rat; settings: 3 hours
Protocol: Male SD rats weighing 170˜220 g were fasted but with free access to water for at leat 16 hours prior to testing. The rats were administered with a compound of this invention suspended in 20 ml 0.5% methylcellulose/0.025% Tween-20, or with vehicle only. Then the rats were given […] of 1% carrageenan in saline or […] saline only into the plantar surface of the left hindpaw by injection. Three hours later, the nociceptive responses to thermal stimuli were assessed as follows: Rats, which were placed in a transparent plastic chamber with a glass floor, were allowed to acclimate to their environment for 10 minutes prior to the testing. The withdrawal latency period in seconds was determined for the control and the compound treated group, and a percent inhibition in the withdrawal latency was calculated to estimate the analgesic effect of the compound [Pain 32, 77 (1988)]. In this study 6 animals were used for each group.

SMILES	IC50, μg/ml COX-2 [1]	IC50, μg/ml COX-1 [2]	Ulcer Index (1˜5) [3]	% Inhibition (CFE) ([4]; oral dose 3 mg/kg body weight)	Adjuvant Arthritis ED50 [5]	melting point	biotransformation of the sulfoxide group into the sulfonyl group [6]	% Inhibition (CFE) ([4]; oral dose 1 mg/kg body weight)	ED50 (mouse writhing) [7]	% Inhibition at 1.0 mg/kg body weight (rat hyperalgesia) [8]
CC(=O)c1ccc(C2=C(c3ccc(S(C)(=O)=O)cc3)OC(C)(C)C2=O)cc1 [Example 10, 4-(4-Acetylphenyl)-2,2-dimethyl-5-{4-(methylsulfonyl)phenyl}-3(2H)-furanone]	0.3 µg/mL (≈ 0.78 µM)	50 µg/mL (≈ 130 µM)	1.2 ± 0.4							
CC1(C)OC(c2ccc(S(C)(=O)=O)cc2)=C(c2cccc(C(F)(F)F)c2)C1=O [Example 14]				32%	0.06 mg/kg body weight	115 to 116 °C				
CC1(C)OC(c2ccc(S(C)(=O)=O)c(F)c2)=C(c2ccc(F)c(F)c2)C1=O [Example 284]	0.03 µg/mL (≈ 0.0757 µM)	10 µg/mL (≈ 25.2 µM)		33%		158 to 159 °C				
CC1(C)OC(c2ccc(S(N)(=O)=O)c(F)c2)=C(c2cccc(F)c2)C1=O [Example 302]	0.03 µg/mL (≈ 0.0791 µM)	5 µg/mL (≈ 13.2 µM)		27%		178 to 179 °C				
CC1(C)OC(c2ccc(S(N)(=O)=O)c(F)c2)=C(c2ccc(F)cc2)C1=O [Example 303]	0.03 µg/mL (≈ 0.0791 µM)	3 µg/mL (≈ 7.91 µM)		30%		190 to 192 °C				
CC1(C)OC(c2ccc(S(N)(=O)=O)c(F)c2)=C(c2ccc(F)c(F)c2)C1=O [Example 311]	0.03 µg/mL (≈ 0.0755 µM)	3 µg/mL (≈ 7.55 µM)		30%		199 to 200 °C				
CC1(C)OC(c2ccc(S(N)(=O)=O)cc2F)=C(c2cccc(F)c2)C1=O [Example 333]	0.003 µg/mL (≈ 0.00791 µM)	10 µg/mL (≈ 26.4 µM)		25%		168 to 170 °C				
CC1(C)OC(c2ccc(S(N)(=O)=O)cc2F)=C(c2cc(F)cc(F)c2)C1=O [Example 335]	0.003 µg/mL (≈ 0.00755 µM)	3 µg/mL (≈ 7.55 µM)		32%		185 to 187 °C				
CC1(C)OC(c2ccc(S(C)(=O)=O)c(Br)c2)=C(c2cccc(F)c2)C1=O [Example 343]	0.03 µg/mL (≈ 0.0683 µM)	50 µg/mL (≈ 114 µM)		25%		133 to 134 °C				
CC1(C)OC(c2ccc(S(C)(=O)=O)c(Cl)c2)=C(c2cccc(F)c2)C1=O [Example 359]	0.02 µg/mL (≈ 0.0507 µM)	200 µg/mL (≈ 507 µM)		28%		163 to 164 °C				
CC1(C)OC(c2ccc(S(C)(=O)=O)c(Cl)c2)=C(c2ccc(F)c(F)c2)C1=O [Example 361]	0.009 µg/mL (≈ 0.0218 µM)	4 µg/mL (≈ 9.69 µM)		41%		150 to 151 °C				
CC1(C)OC(c2ccc(S(N)(=O)=O)c(Cl)c2)=C(c2cccc(F)c2)C1=O [Example 369]	0.02 µg/mL (≈ 0.0505 µM)	50 µg/mL (≈ 126 µM)		28%		149 to 150 °C				
C[S+]([O-])c1ccc(C2=C(c3cccc(Cl)c3)C(=O)C(C)(C)O2)cc1 (stereo not shown) [Example 393, 4-(3-Chlorophenyl)-2,2-dimethyl-5-{4-(methylsulfinyl)phenyl}-3(2H)-furanone]	0.3 µg/mL (≈ 0.831 µM)	5 µg/mL (≈ 13.9 µM)					biotransformed into the sulfonyl group			
COc1ccc2c(c1)c(CC(=O)O)c(C)n2C(=O)c1ccc(Cl)cc1 [indomethacin, reference compound]								28%	7.4 mg/kg body weight	45%
